Reference: PubChem BioAssay AID250 (DTP/NCI, 2004)
“And” between values parts separate entries of the source, which are not always exact repeats. Identical values can stand only once. Inconclusive results and toxic doses are left out.

System: BDF1 mice, L1210 leukemia sc, survival T/C
Assay: NCI In Vivo Anticancer Drug Screen. Data for tumor model L1210 Leukemia (subcutaneous) in B6D2F1 (BDF1) mice
Settings: higher = longer survival
How it was run: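 Mice carrying transplanted tumors received test compounds, and survival or tumor size was measured. Values are the treated-group measurement (T) divided by that of the vehicle-treated control group (C).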

[1] = endpoint: median survival time, dose: 23.0 mg/kg/injection, schedule: Q01DX Z (sc), vehicle: saline
[2] = endpoint: median survival time, dose: 39.0 mg/kg/injection, schedule: Q01DX Z (sc), vehicle: methylcellulose (MC)
[3] = endpoint: median survival time, dose: 39.0 mg/kg/injection, schedule: Q01DX Z (sc), vehicle: saline
[4] = endpoint: median survival time, dose: 65.0 mg/kg/injection, schedule: Q01DX Z (sc), vehicle: methylcellulose (MC)
[5] = endpoint: median survival time, dose: 65.0 mg/kg/injection, schedule: Q01DX Z (sc), vehicle: saline
[6] = endpoint: median survival time, dose: 108.0 mg/kg/injection, schedule: Q01DX Z (sc), vehicle: saline
[7] = endpoint: median survival time, dose: 23.0 mg/kg/injection, schedule: Q01DX Z (sc), vehicle: methylcellulose (MC)
[8] = endpoint: median survival time, dose: 108.0 mg/kg/injection, schedule: Q01DX Z (sc), vehicle: methylcellulose (MC)
[9] = endpoint: median survival time, dose: 180.0 mg/kg/injection, schedule: Q01DX Z (sc), vehicle: methylcellulose (MC)
[10] = endpoint: median survival time, dose: 300.0 mg/kg/injection, schedule: Q01DX Z (sc), vehicle: methylcellulose (MC)
[11] = endpoint: median survival time, dose: 500.0 mg/kg/injection, schedule: Q01DX Z (sc), vehicle: methylcellulose (MC)
[12] = endpoint: median survival time, dose: 23.0 mg/kg/injection, schedule: Q01DX Z (sc), vehicle: carboxymethylcellulose (CMC)
[13] = endpoint: median survival time, dose: 39.0 mg/kg/injection, schedule: Q01DX Z (sc), vehicle: carboxymethylcellulose (CMC)
[14] = endpoint: median survival time, dose: 65.0 mg/kg/injection, schedule: Q01DX Z (sc), vehicle: carboxymethylcellulose (CMC)
[15] = endpoint: median survival time, dose: 108.0 mg/kg/injection, schedule: Q01DX Z (sc), vehicle: carboxymethylcellulose (CMC)

## CN(C)/N=N/c1nc[nH]c1C(N)=O
endpoint: mean survival time, dose: 39.0 mg/kg/injection, schedule: Q01DX009 (sc), vehicle: steriod suspending solution
  T/C: 117 % of control
endpoint: mean survival time, dose: 65.0 mg/kg/injection, schedule: Q01DX009 (sc), vehicle: steriod suspending solution
  T/C: 115 % of control
endpoint: mean survival time, dose: 300.0 mg/kg/injection, schedule: Q01DX009 (sc), vehicle: steriod suspending solution
  T/C: 158 % of control
endpoint: median survival time, dose: 39.0 mg/kg/injection, schedule: Q01DX009 (sc), vehicle: steriod suspending solution
  T/C: 110 % of control and 116 % of control
endpoint: median survival time, dose: 39.0 mg/kg/injection, schedule: Q01DX013 (sc), vehicle: steriod suspending solution
  T/C: 110 % of control and 111 % of control
endpoint: median survival time, dose: 39.0 mg/kg/injection, schedule: Q01DX Z (sc), vehicle: steriod suspending solution
  T/C: 110 % of control and 116 % of control
endpoint: median survival time, dose: 65.0 mg/kg/injection, schedule: Q01DX009 (sc), vehicle: other
  T/C: 111 % of control
endpoint: median survival time, dose: 65.0 mg/kg/injection, schedule: Q01DX009 (sc), vehicle: steriod suspending solution
  T/C: 110 % of control and 118 % of control and 121 % of control
endpoint: median survival time, dose: 65.0 mg/kg/injection, schedule: Q01DX013 (sc), vehicle: other
  T/C: 113 % of control
endpoint: median survival time, dose: 65.0 mg/kg/injection, schedule: Q01DX013 (sc), vehicle: steriod suspending solution
  T/C: 111 % of control and 113 % of control and 115 % of control
endpoint: median survival time, dose: 65.0 mg/kg/injection, schedule: Q01DX017 (oral), vehicle: steriod suspending solution
  T/C: 124 % of control
endpoint: median survival time, dose: 65.0 mg/kg/injection, schedule: Q01DX Z (sc), vehicle: steriod suspending solution
  T/C: 121 % of control and 122 % of control
endpoint: median survival time, dose: 65.0 mg/kg/injection, schedule: Q ##X015 (oral), vehicle: steriod suspending solution
  T/C: 113 % of control
endpoint: median survival time, dose: 65.0 mg/kg/injection, schedule: Q## X015 (oral), vehicle: steriod suspending solution
  T/C: 116 % of control
endpoint: median survival time, dose: 108.0 mg/kg/injection, schedule: Q01DX009 (sc), vehicle: other
  T/C: 108 % of control
endpoint: median survival time, dose: 108.0 mg/kg/injection, schedule: Q01DX013 (sc), vehicle: steriod suspending solution
  T/C: 115 % of control and 117 % of control and 122 % of control
endpoint: median survival time, dose: 108.0 mg/kg/injection, schedule: Q01DX Z (sc), vehicle: steriod suspending solution
  T/C: 115 % of control
endpoint: median survival time, dose: 108.0 mg/kg/injection, schedule: Q ##X015 (oral), vehicle: steriod suspending solution
  T/C: 117 % of control
endpoint: median survival time, dose: 108.0 mg/kg/injection, schedule: Q## X015 (oral), vehicle: steriod suspending solution
  T/C: 116 % of control
endpoint: median survival time, dose: 180.0 mg/kg/injection, schedule: Q01DX009 (sc), vehicle: other
  T/C: 115 % of control
endpoint: median survival time, dose: 300.0 mg/kg/injection, schedule: Q01DX Z (sc), vehicle: steriod suspending solution
  T/C: 166 % of control
endpoint: median survival time, dose: 500.0 mg/kg/injection, schedule: Q01DX013 (sc), vehicle: other
  T/C: 166 % of control
endpoint: median survival time, dose: 500.0 mg/kg/injection, schedule: Q01DX013 (sc), vehicle: steriod suspending solution
  T/C: 166 % of control
endpoint: median survival time, dose: 500.0 mg/kg/injection, schedule: Q01DX017 (oral), vehicle: steriod suspending solution
  T/C: 150 % of control
endpoint: median survival time, dose: 500.0 mg/kg/injection, schedule: Q## X015 (oral), vehicle: steriod suspending solution
  T/C: 150 % of control
endpoint: median survival time, dose: 833.0 mg/kg/injection, schedule: Q ##X015 (oral), vehicle: steriod suspending solution
  T/C: 158 % of control
endpoint: median survival time, dose: 833.0 mg/kg/injection, schedule: Q## X015 (oral), vehicle: steriod suspending solution
  T/C: 166 % of control

## CN(C)c1ccc(/C=C/c2cc[n+](C)c3ccccc23)cc1
endpoint: median survival time, dose: 0.65 mg/kg/injection, schedule: Q01DX Z (sc), vehicle: methylcellulose (MC)
  T/C: 109 % of control
endpoint: median survival time, dose: 1.08 mg/kg/injection, schedule: Q01DX Z (sc), vehicle: methylcellulose (MC)
  T/C: 109 % of control
endpoint: median survival time, dose: 1.8 mg/kg/injection, schedule: Q01DX Z (sc), vehicle: methylcellulose (MC)
  T/C: 109 % of control
endpoint: median survival time, dose: 3.0 mg/kg/injection, schedule: Q01DX Z (sc), vehicle: methylcellulose (MC)
  T/C: 109 % of control

## CC1(C)N=C(N)N=C(N)N1c1cccc(Br)c1
[1]
  T/C: 105 % of control
[2]
  T/C: 112 % of control
[3]
  T/C: 100 % of control and 122 % of control
[4]
  T/C: 118 % of control
[5]
  T/C: 110 % of control and 122 % of control
[6]
  T/C: 122 % of control

## COC(=O)c1[nH]cnc1/N=N/N(C)C
endpoint: median survival time, dose: 14.0 mg/kg/injection, schedule: Q01DX Z (sc), vehicle: saline
  T/C: 109 % of control
[1]
  T/C: 100 % of control
[3]
  T/C: 109 % of control
[5]
  T/C: 104 % of control
[6]
  T/C: 159 % of control

## CS(=O)(=O)OCCCCCCCCCOS(C)(=O)=O
endpoint: median survival time, dose: 47.0 mg/kg/injection, schedule: Q01DX Z (sc), vehicle: methylcellulose (MC)
  T/C: 105 % of control
endpoint: median survival time, dose: 78.0 mg/kg/injection, schedule: Q01DX Z (sc), vehicle: methylcellulose (MC)
  T/C: 115 % of control
endpoint: median survival time, dose: 216.0 mg/kg/injection, schedule: Q01DX Z (sc), vehicle: methylcellulose (MC)
  T/C: 160 % of control

## CN(N=O)C(=O)NC(C=O)C(O)C(O)C(O)CO (centres undefined)
[3]
  T/C: 100 % of control
[5]
  T/C: 112 % of control
[6]
  T/C: 100 % of control
endpoint: median survival time, dose: 180.0 mg/kg/injection, schedule: Q01DX Z (sc), vehicle: saline
  T/C: 112 % of control
endpoint: median survival time, dose: 300.0 mg/kg/injection, schedule: Q01DX Z (sc), vehicle: saline
  T/C: 112 % of control
endpoint: median survival time, dose: 500.0 mg/kg/injection, schedule: Q01DX Z (sc), vehicle: saline
  T/C: 100 % of control

## Nc1nc(=S)c2ncn(C3OC(COC(=O)c4ccccc4)C(OC(=O)c4ccccc4)C3OC(=O)c3ccccc3)c2[nH]1 (centres undefined)
[7]
  T/C: 100 % of control
[2]
  T/C: 100 % of control
[4]
  T/C: 110 % of control
[8]
  T/C: 100 % of control and 112 % of control
[9]
  T/C: 108 % of control
[10]
  T/C: 100 % of control
[11]
  T/C: 91 % of control

## Nc1nc(N)c2nc(CNc3ccc(C(=O)NC(CCC(=O)O)C(=O)O)cc3)cnc2n1 (centres undefined)
endpoint: median survival time, dose: 0.04 mg/kg/injection, schedule: Q01DX Z (sc), vehicle: other
  T/C: 100 % of control
endpoint: median survival time, dose: 0.05 mg/kg/injection, schedule: Q01DX Z (sc), vehicle: other
  T/C: 100 % of control
endpoint: median survival time, dose: 0.08 mg/kg/injection, schedule: Q01DX Z (sc), vehicle: other
  T/C: 100 % of control
endpoint: median survival time, dose: 0.4 mg/kg/injection, schedule: Q01DX Z (sc), vehicle: other
  T/C: 120 % of control
endpoint: median survival time, dose: 0.6 mg/kg/injection, schedule: Q01DX Z (sc), vehicle: other
  T/C: 120 % of control
endpoint: median survival time, dose: 0.89 mg/kg/injection, schedule: Q01DX Z (sc), vehicle: other
  T/C: 120 % of control
endpoint: median survival time, dose: 1.33 mg/kg/injection, schedule: Q01DX Z (sc), vehicle: other
  T/C: 110 % of control
endpoint: median survival time, dose: 2.0 mg/kg/injection, schedule: Q01DX Z (sc), vehicle: other
  T/C: 120 % of control

## CCCC(=O)OCC1OC(n2cnc3c(=S)nc(N)[nH]c32)C(OC(=O)CCC)C1OC(=O)CCC (centres undefined)
endpoint: median survival time, dose: 14.0 mg/kg/injection, schedule: Q01DX Z (sc), vehicle: carboxymethylcellulose (CMC)
  T/C: 112 % of control
[12]
  T/C: 100 % of control
[13]
  T/C: 112 % of control
[14]
  T/C: 175 % of control
[15]
  T/C: 168 % of control
endpoint: median survival time, dose: 180.0 mg/kg/injection, schedule: Q01DX Z (sc), vehicle: carboxymethylcellulose (CMC)
  T/C: 150 % of control

## Cc1cccc(C)c1NC(=O)N(CCCl)N=O
endpoint: median survival time, dose: 8.4 mg/kg/injection, schedule: Q01DX Z (sc), vehicle: carboxymethylcellulose (CMC)
  T/C: 106 % of control
[12]
  T/C: 181 % of control
[13]
  T/C: 287 % of control
[14]
  T/C: 337 % of control
[15]
  T/C: 162 % of control

## CC(C)Sc1nc(N)nc2nc[nH]c12
[7]
  T/C: 100 % of control
[2]
  T/C: 100 % of control
[4]
  T/C: 111 % of control
[8]
  T/C: 111 % of control
[9]
  T/C: 111 % of control
[10]
  T/C: 105 % of control
[11]
  T/C: 111 % of control
